According to patent US20260028354A1, “TETRAHYDRONAPHTHALENE DERIVATIVES AS ESTROGEN RECEPTOR DEGRADERS” (REGENT OF THE UNIVERSITY OF MICHIGAN, priority 2022, published 2026):
Read-outs that look alike come from different tables or passages of the source.

Tests used:
ERα_LBD (GST) = ERα_LBD (GST) (Homo sapiens (Human), UniProt P03372); assay: IC50 measurements for binding to ERα_LBD (GST), LanthaScreen TR-FRET competitive binding; settings: ERα_LBD (GST) 4 nM, Fluormone ES2 Green tracer, 60 min; read-out: ERα HTRF IC50
ERα_LBD (GST), sequence (P03372 311-547): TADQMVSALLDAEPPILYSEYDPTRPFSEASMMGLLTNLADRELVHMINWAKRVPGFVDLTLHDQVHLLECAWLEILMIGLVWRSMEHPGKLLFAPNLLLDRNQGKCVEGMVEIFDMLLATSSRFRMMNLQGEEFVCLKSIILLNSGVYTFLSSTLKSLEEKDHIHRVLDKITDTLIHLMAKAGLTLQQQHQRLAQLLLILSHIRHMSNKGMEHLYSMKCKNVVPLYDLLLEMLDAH
Description: In vitro Assay: IC50 Measurements for binding to ERα_LBD (GST) • Final assay conditions: • 1. ERα_LBD (GST) protein: 4 nM • 2. Tb Anti-GST: 2 nM • 3. Fluormone ES2 Green tracer: 3 nM • 4. Incubation time: 60 min • 5. DMSO: 1% • 6. Assay buffer: Adding 1M DTT to Nuclear receptor Buffer K for final 5 mM DTT. • 7. ZPE: 1% DMSO • 8. HPE: 1 μM ARV_471 (positive control) • 9. LanthaScreen® TR-FRET ERα Competitive Binding Assay (ThermoFisher, #A^15887) • 100× Compound preparation
1) Cherry pick 2 μL 10 mM compound stock to column 1 of a 384 intermediate plate. • 2) Add 18 μL DMSO to column 1 to dilute compound to 1 mM. • 3) Transfer 10 μL 1 mM compound to column 1 of a LDV plate. • 2) Add 6 μl DMSO to column 2-10 of the LDV plate. • 3) Compounds undergo 3-fold serial dilution (3 μL+6 μL) in DMSO. • 4) Transfer 120 nL compound solution to assay plate. ZPE: 120 nL 100% DMSO • Procedure:
Complete nuclear receptor buffer K was prepared by adding 1 M DTT to nuclear receptor buffer K for a final concentration of 5 mM DTT. Complete nuclear receptor buffer K must be prepared fresh daily, 2X protein solution was prepared using complete nuclear receptor buffer K containing 8 nM ERα_LBD (GST) and 4 nM Tb Anti-GST. Then, 2X Fluormone ES2 Green tracer (6 nM) was prepared using complete nuclear receptor buffer K. Add 6 μL 2X Fluormone ES2 green tracer into a compound plate (PerkinElmer 6008289) by dragonfly with one-tips-addition. Subsequently, 6 μL 2× protein solution was added into the plate. The 384-well plate was mixed on a plate shaker and incubated at room temperature protected from light for 60 min. The plate was scaled with a cover to minimize evaporation. The plate was read at wavelengths of 520 nm and 495 nm. The TR-FRET ratio was calculated by dividing the emission signal at 520 nm by the emission signal at 495 nm. A binding curve was generated by plotting the emission ratio vs, the log [ligand]. To determine the IC50 value, fit the data using XL-fit for a sigmoidal dose-response.

ER in T47D cells = ER in T47D cells (Homo sapiens (Human), UniProt P03372); assay: In-cell Western (ICW) ER degradation assay in T47D cells; format: cell-based; settings: for DC50: ER degradation
ER in T47D cells, sequence (P03372 whole entry): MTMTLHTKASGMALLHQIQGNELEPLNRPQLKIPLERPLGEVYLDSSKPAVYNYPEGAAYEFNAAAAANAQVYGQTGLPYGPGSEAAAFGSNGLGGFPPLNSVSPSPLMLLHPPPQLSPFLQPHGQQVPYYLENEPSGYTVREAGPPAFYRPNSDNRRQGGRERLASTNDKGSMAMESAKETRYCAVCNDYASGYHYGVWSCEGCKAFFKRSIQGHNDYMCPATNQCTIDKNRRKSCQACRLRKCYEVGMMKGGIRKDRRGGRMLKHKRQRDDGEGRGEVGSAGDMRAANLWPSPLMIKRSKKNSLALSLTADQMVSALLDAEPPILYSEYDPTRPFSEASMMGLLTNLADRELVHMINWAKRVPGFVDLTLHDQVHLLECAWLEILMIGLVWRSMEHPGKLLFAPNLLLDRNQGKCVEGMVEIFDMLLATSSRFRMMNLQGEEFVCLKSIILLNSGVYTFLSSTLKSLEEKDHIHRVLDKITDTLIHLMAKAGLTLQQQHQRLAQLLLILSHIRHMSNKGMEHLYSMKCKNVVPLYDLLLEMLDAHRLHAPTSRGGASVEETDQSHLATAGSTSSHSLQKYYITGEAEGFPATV

CRBN/DDB1 = CRBN/DDB1 (Homo sapiens (Human), UniProt Q96SW2); format: binding; settings: His tagged CRBN+DDB1, Cy5-labeled Thalidomide probe, one hour; read-out: CRBN HTRF IC50
CRBN/DDB1, sequence (Q96SW2 whole entry, species assumed): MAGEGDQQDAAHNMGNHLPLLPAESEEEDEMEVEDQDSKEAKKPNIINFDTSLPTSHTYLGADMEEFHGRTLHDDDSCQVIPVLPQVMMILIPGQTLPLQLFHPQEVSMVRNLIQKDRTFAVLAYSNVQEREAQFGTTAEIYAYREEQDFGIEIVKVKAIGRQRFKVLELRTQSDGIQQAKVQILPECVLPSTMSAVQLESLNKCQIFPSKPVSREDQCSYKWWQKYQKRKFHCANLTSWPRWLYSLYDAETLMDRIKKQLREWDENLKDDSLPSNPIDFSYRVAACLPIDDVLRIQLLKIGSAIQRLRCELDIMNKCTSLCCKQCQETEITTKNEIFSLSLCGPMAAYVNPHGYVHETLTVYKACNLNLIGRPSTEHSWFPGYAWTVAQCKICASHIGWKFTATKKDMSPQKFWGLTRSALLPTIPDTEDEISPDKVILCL
CRBN/DDB1, sequence (Q16531 whole entry partner, species assumed): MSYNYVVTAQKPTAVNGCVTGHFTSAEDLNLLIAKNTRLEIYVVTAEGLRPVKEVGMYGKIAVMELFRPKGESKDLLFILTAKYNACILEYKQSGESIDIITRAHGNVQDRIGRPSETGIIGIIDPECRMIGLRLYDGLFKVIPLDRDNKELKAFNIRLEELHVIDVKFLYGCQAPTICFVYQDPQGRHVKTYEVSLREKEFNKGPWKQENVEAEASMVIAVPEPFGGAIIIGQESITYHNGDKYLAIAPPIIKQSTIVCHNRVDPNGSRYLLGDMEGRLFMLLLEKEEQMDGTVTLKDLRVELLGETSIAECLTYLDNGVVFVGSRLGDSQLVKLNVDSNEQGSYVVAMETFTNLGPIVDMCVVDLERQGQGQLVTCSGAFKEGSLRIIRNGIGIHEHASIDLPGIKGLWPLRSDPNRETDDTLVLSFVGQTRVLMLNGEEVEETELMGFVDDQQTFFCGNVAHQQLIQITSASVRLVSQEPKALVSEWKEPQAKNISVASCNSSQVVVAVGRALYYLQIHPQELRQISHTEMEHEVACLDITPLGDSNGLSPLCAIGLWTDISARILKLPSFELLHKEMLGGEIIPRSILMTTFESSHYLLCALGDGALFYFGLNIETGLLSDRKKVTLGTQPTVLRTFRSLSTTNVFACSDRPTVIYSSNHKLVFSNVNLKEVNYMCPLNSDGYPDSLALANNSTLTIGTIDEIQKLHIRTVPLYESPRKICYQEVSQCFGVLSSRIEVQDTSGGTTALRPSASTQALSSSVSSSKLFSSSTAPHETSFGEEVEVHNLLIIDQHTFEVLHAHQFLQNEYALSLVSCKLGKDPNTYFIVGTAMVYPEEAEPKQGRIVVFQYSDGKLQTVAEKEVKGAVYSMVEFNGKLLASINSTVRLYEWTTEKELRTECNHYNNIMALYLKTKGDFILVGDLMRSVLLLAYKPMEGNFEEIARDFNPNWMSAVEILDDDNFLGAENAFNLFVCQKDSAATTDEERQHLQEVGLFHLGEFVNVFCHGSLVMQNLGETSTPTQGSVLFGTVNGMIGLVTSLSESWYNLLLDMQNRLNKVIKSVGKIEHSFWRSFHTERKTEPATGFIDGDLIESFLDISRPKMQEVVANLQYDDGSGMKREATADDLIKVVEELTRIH
Description: The binding potency was determined using HTRF assay technology (Perkin Elmer). Compounds were serially diluted in DMSO and […] volume was transferred to white 384-well plate.

ER in MCF-7 cells = ER in MCF-7 cells (Homo sapiens (Human), UniProt P03372); assay: In-cell Western (ICW) ER degradation assay in MCF-7 cells; format: cell-based; settings: for DC50: MCF-7, ER degradation, read-out: MCF7 DC50
ER in MCF-7 cells, sequence (P03372 whole entry): as the sequence (P03372 whole entry) above

[1] = maximal ER degradation, 16 hrs treatment, read-out: T47D Dmax
[2] = MCF7, MCF-7, maximal ER degradation, 16 hrs treatment, read-out: MCF7 Dmax
[3] = read-out: T47D Dmax, T47D, maximal ER degradation, 16 hrs treatment
[4] = MCF7, read-out: MCF7 Dmax, MCF-7, maximal ER degradation, 16 hrs treatment

| SMILES | IC50 (ERα_LBD (GST)) [nM] | DC50 (ER in T47D cells; 16 hrs treatment) [nM] | Dmax (ER in T47D cells; [1]) [%] | IC50 (CRBN/DDB1) [nM] | Dmax (ER in MCF-7 cells; [2]) [%] | DC50 (ER in MCF-7 cells; 16 hrs treatment) [nM] | Dmax (ER in T47D cells; [3]) [%] | Dmax (ER in MCF-7 cells; [4]) [%] |
| --- | --- | --- | --- | --- | --- | --- | --- | --- |
| O=C1CC[C@H](N2Cc3c(ccc4c3OC[C@H]3CN(C[C@@H]5COC6(C5)CN(c5ccc([C@@H]7c8ccc(O)cc8CC[C@@H]7c7ccccc7)cc5)C6)CCN43)C2=O)C(=O)N1 (single isomer, unassigned) [Compound A69] | < 10 | < 1 | > 75 | 50 to 500 | 50 to 75 | < 1 | – | – |
| COc1cc(N2CCC3(CC2)CC(CN2CCC4(CC2)COc2c4ccc4c2CN([C@H]2CCC(=O)NC2=O)C4=O)CO3)ccc1[C@H]1c2ccc(O)cc2CC[C@H]1c1ccccc1 (stereo partly drawn) [Compound A54, (3S)-3-(1′-((8-(4-((1R,2R)-6-hydroxy-2-phenyl-1,2,3,4-tetrahydronaphthalen-1-yl)-3-methoxyphenyl)-1-oxa-8-azaspiro[4.5]decan-3-yl)methyl)-6-oxo-6,8-dihydro-2H,7H-spiro[furo[2,3-e]isoindole-3,4′-piperidin]-7-yl)piperidine-2,6-dione] | < 10 | < 1 | – | < 50 | – | < 1 | > 75 | 50 to 75 |
| O=C1CC[C@H](N2Cc3c(ccc4c3OC[C@H]3CN(CC5CC6(CCN(c7ccc([C@@H]8c9ccc(O)cc9CC[C@@H]8c8ccccc8)cn7)CC6)C5)CCN43)C2=O)C(=O)N1 (single isomer, unassigned) [Compound A112] | < 10 | – | – | 50 to 500 | > 75 | < 1 | – | – |
| COC1(CN2CCN3c4ccc5c(c4OC[C@H]3C2)CN([C@H]2CCC(=O)NC2=O)C5=O)CCN(c2ccc([C@@H]3c4ccc(O)cc4CC[C@@H]3c3ccccc3)cc2)CC1 [Compound A82, (S)-3-((R)-7-((1-(4-((1R,2S)-6-hydroxy-2-phenyl-1,2,3,4-tetrahydronaphthalen-1-yl)-phenyl)-4-methoxypiperidin-4-yl)methyl)-1-oxo-1,3,5,5a,6,7,8,9-octahydro-2H-pyrazino [1′,2′:4,5][1,4]oxazino[2,3-c]isoindol-2-yl)piperidine-2,6-dione] | < 10 | – | – | 50 to 500 | > 75 | < 1 | – | – |
| COc1cc(N2CCC3(CC2)CC(CN2CCC4(CC2)COc2cc5c(cc24)CN([C@H]2CCC(=O)NC2=O)C5=O)C3)c(F)cc1[C@@H]1c2ccc(O)cc2CC[C@@H]1c1ccccc1 [Compound A129, (S)-3-(1′-((7-(2-fluoro-4-((1S,2S)-6-hydroxy-2-phenyl-1,2,3,4-tetrahydronaphthalen-1-yl)-5-methoxyphenyl)-7-azaspiro[3.5]nonan-2-yl)methyl)-7-oxo-5,7-dihydro-2H,6H-spiro[furo[2,3-f]isoindole-3,4′-piperidin]-6-yl)piperidine-2,6-dione] | < 10 | < 1 | – | – | – | < 1 | > 75 | > 75 |
| COc1cc(N2CCC3(CC2)CC(CN2CCN4c5ccc6c(c5OC[C@H]4C2)CN([C@H]2CCC(=O)NC2=O)C6=O)C3)ccc1[C@H]1c2ccc(O)cc2CC[C@H]1c1ccccc1 (single isomer, unassigned) [Compound A9] | 10 to 100 | 1 to 10 | 50 to 75 | < 50 | 50 to 75 | 1 to 10 | – | – |
| COc1cc(N2CCC3(CC2)CC(CN2CCN4c5cc6c(cc5OC[C@@H]4C2)C(=O)N([C@H]2CCC(=O)NC2=O)C6)C3)ccc1[C@H]1c2ccc(O)cc2CC[C@H]1c1ccccc1 (single isomer, unassigned) [Compound A11] | 10 to 100 | 1 to 10 | 50 to 75 | 50 to 500 | 50 to 75 | 10 to 100 | – | – |
